Experimental data as given in patent US20150038668A1, “Branched Polyesters Based On Citric Acid, Their Preparation And Use” (BASF SE, priority 2010, published 2015).
Values after ≈ are worked out from the molar mass of the structure shown.

Experiment: physchem
Conditions: thermodynamic from solid
Experimental: To increase the solubility of the low-solubility active ingredients, 40 ml of a 15% polymer solution (in DI water) were prepared. […] If the added active ingredient dissolved, further active ingredient was added, to supersaturation, followed by stirring for a further 72 hours. The resulting suspension was filtered through a 0.45 μm membrane filter and the dissolved fraction of active ingredient was determined by means of UV/Vis spectroscopy. The same method was also carried for the active ingredients alone, in order to determine the solubility of the pure active ingredient and to be able to determine the improvement through salt formation. For comparison, the solubility in 0.1 normal HCl as well was ascertained, representing the solubility of the hydrochloride salt of the corresponding base.

**Q.** With `CN(C)C(=O)C(CCN1CCC(O)(c2ccc(Cl)cc2)CC1)(c1ccccc1)c1ccccc1` [Loperamide, loperamide] as the compound, how does the solubility thermodynamic at 72 h (simulated gastric fluid) read?
**A.** 200 µg/mL (≈ 419 µM)

**Q.** What about the solubility thermodynamic at 72 h (water) of the same compound?
**A.** 70 µg/mL (≈ 147 µM)

**Q.** Which solubility thermodynamic at 72 h (simulated gastric fluid) does the source give for `NC(N)=Nc1nc(CSCCC(N)=NS(N)(=O)=O)cs1` [Famotidine, famotidine] here?
**A.** 32100 µg/mL (≈ 95100 µM)

**Q.** And the solubility thermodynamic at 72 h (water)?
**A.** 1000 µg/mL (≈ 2960 µM)
